Measurements taken from patent publication US20250188030A1, “Biphenyl and Phenylpyridine Compounds” (Pfizer Inc., priority 2023, published 2025).
Where two headings read alike, the source gives them in different places.

Key:
KAT2A = KAT2A (Homo sapiens (Human), UniProt Q92830); experiment: KAT2A acetyltransferase biochemical assay (RapidFire mass spectrometry, AcCoA to CoA)
H3K9AC (HT1080 cells) = experiment: H3K9AC Sandwich ELISA Assay in HT1080 cells (KAT2A primary cell-based screening assay); design: species or system Human
Method in brief: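 Acetylated H3K9 quantified by luminescent sandwich ELISA (total H3 capture, H3K9ac detection) on HCl lysates of HT1080 cells. Cells had 24 h compound exposure at 37 °C, top concentration 10 µM, 10-point 3-fold series, 0.1% DMSO; IC50 from four-parameter fitting.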

MM.1S cells = experiment: MM1.S 10 Day Proliferation Assay (CellTiter-Glo); type: cell-based, Human
Method: Human B lymphoblast cell line MM.1S was obtained from American Type Culture Collection (ATCC), Manassas, VA USA, Cat. MM.1S (ATCC® CRL-2974™). Cells were cultured in RPMI (Thermo Fisher Scientific/Gibco Life Technologies Cat. #111875-093) plus 10% (v/v) FBS (Thermo Fisher Scientific/Gibco Life Technologies Cat. #26140-079) and 1% Penicillin-Streptomycin (Thermo Fisher Scientific/Gibco Life Technologies Cat. #15070063) at 37° C. in 5% CO2.
MM1.S cells were trypsinized cell viability count performed, and cells suspended in complete media at 5,556 cells/ml. Cells were then seeded (90 μl/well) into a 96-well round black/clear bottom, ULA (Ultra-Low Attachment surface plate (Corning cat #4520) at a density of 500 cells/well. Cells were then incubated for 16 hours at 37° C. and 5% CO2. Compound dilution plates were prepared in 96-well, clear U-bottom, polypropylene plates (Corning 3365) in 100% DMSO at 10 mM stock concentration in duplicate wells, using a 10-point serial dilution (1:3 dilutions). Compounds were diluted to 1:100 in growth medium. Then 10 μl of diluted compounds were added to each well of the cell plates using a Beckman FX liquid handling system such that the highest compound concentration tested was 10 μM final, with a 0.1% final DMSO concentration in the total volume of 100 μl. Plates were incubated for 10 total days at 37° C. and 5% CO2. Fresh media containing compound was refreshed at 5 days treatment.
Finally, the treatment plates were removed from the incubator and 100 μl of CellTiter-Glo Luminescent reagent was added to each well, and plates were equilibrated in the dark for 30 minutes. Plates were read on the PHERAstar plate reader using the 96-well with Luminescent reading mode. IC50 values were calculated using a four-parameter fit with GraphPad Prism version 9.5.1 or in house modified IDBS ActivityBase data analyzing package.

[1] = read-out: KAT2A Ki at 1 μM AcCoA, 5 μM H3 1-21 peptide, 0.5 nM KAT2A, 90-minute reaction
[2] = Homo sapiens, HT-1080, H3K9AC sandwich ELISA
[3] = KAT2A Ki at 1 μM AcCoA, 5 μM H3 1-21 peptide, 0.5 nM KAT2A, 90-minute reaction

Chain of KAT2A (Q92830 whole entry): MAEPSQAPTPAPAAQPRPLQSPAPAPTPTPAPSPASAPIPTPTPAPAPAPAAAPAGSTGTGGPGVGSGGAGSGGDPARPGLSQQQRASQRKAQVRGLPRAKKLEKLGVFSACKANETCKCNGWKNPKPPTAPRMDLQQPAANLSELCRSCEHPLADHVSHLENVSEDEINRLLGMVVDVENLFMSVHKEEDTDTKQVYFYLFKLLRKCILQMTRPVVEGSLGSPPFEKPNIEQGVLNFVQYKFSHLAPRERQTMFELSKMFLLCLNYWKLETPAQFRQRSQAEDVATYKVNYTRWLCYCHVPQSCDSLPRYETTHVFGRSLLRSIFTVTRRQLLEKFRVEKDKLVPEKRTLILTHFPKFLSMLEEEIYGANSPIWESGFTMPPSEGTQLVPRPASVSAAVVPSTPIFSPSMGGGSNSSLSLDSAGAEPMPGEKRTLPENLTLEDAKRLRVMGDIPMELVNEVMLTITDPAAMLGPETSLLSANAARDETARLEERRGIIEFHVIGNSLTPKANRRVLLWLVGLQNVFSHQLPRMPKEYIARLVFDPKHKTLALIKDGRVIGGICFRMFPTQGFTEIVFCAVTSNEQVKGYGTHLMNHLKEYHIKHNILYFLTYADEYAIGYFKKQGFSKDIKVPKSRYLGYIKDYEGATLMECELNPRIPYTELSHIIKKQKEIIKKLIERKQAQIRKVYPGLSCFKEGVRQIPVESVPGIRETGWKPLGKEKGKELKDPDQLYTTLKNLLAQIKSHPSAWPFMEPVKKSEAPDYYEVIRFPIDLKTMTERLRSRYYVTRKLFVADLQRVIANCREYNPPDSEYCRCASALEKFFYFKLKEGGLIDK

Ki (KAT2A; [1]) [nM] | IC50 (H3K9AC (HT1080 cells); [2]) [nM] | IC50 (MM.1S cells; Homo sapiens, MM1.S, 240 h) [nM] | IC50 (H3K9AC (HT1080 cells); H3K9AC sandwich ELISA) [nM] | IC50 (MM.1S cells) [nM] | Ki (KAT2A; [3]) [nM] | Compound
 | 71.2 | 625 |  |  | 9.11 | CN1CC(C)(C)C[C@H]1C(=O)N[C@H]1C[C@H](COc2ccc(C(C)(C)C(=O)O)cc2-c2cccc(F)c2C2CCC2)C1 [Example F2, 2-[2′-cyclobutyl-3′-fluoro-6-({(1S,3r)-3-[(1,4,4-trimethyl-L-prolyl)amino]cyclobutyl}methoxy)[1,1′-biphenyl]-3-yl]-2-methylpropanoic acid]
 | 3.56 | 5.37 |  |  | 0.05 | CN(C)S(=O)(=O)NC(=O)C(C)(C)c1ccc(O[C@@H]2CC[C@@H](NC(=O)[C@@]3(F)CNC4(CCC4)C3)C2)c(-c2cccc(F)c2C2CCC2)c1 [Example C2, (7S)-N-{(1R,3R)-3-[(2′-cyclobutyl-5-{1-[(dimethylsulfamoyl)amino]-2-methyl-1-oxopropan-2-yl}-3′-fluorobiphenyl-2-yl)oxy]cyclopentyl}-7-fluoro-5-azaspiro[3.4]octane-7-carboxamide]
 | 9.38 | 56.9 |  |  | 1.68 | CN1CC(C)(C)C[C@H]1C(=O)N[C@H]1C[C@H](COc2ccc(C(C)(C)C(=O)NS(C)(=O)=O)cc2-c2cccc(F)c2C2CCC2)C1 [Example G2, N-[(1r,3S)-3-{[(2′-cyclobutyl-3′-fluoro-5-{1-[(methanesulfonyl)amino]-2-methyl-1-oxopropan-2-yl}[1,1′-biphenyl]-2-yl)oxy]methyl}cyclobutyl]-1,4,4-trimethyl-L-prolinamide]
1.7 | 24.2 | 73.4 |  |  |  | CN1CC(C)(C)C[C@H]1C(=O)N[C@@H]1CC[C@@H](Oc2ccc(C(C)(C)C(=O)NS(C)(=O)=O)cc2-c2ccc(F)c(F)c2C2CCC2)C1 [Example E11, N-{(1R,3R)-3-[(2′-cyclobutyl-3′,4′-difluoro-5-{1-[(methanesulfonyl)amino]-2-methyl-1-oxopropan-2-yl}[1,1′-biphenyl]-2-yl)oxy]cyclopentyl}-1,4,4-trimethyl-L-prolinamide]
708 |  |  | > 1000 | > 10000 |  | CC(C)c1c(F)cccc1-c1cc(C(C)(C)C(=O)NS(C)(=O)=O)ccc1O[C@@H]1CC[C@@H](NC(=O)[C@@]2(F)CNC3(CCC3)C2)C1 (single isomer, unassigned) [Example C20]
25 | 24.5 | 238 |  |  |  | CN1CC(C)(C)C[C@H]1C(=O)N[C@@H]1CC[C@@H](Oc2cccc(C(=O)NS(=O)(=O)N3CCC3)c2-c2cccc(F)c2C2CCC2)C1 (atropisomer, axis not shown) [Example I13, N-[(1R,3R)-3-({(1ψ)-6-[(azetidine-1-sulfonyl)carbamoyl]-2′-cyclobutyl-3′-fluoro[1,1′-biphenyl]-2-yl}oxy)cyclopentyl]-1,4,4-trimethyl-L-prolinamide]
0.06 | 2.8 | 4.2 |  |  |  | CC(C)c1c(F)cccc1-c1cc(C(C)(C)C(=O)NS(=O)(=O)C2(C)CC2)ccc1O[C@@H]1CC[C@@H](NC(=O)[C@@]2(F)CNC3(CCC3)C2)C1 (single isomer, unassigned) [Example C43]
53 | 99 | 203 |  |  |  | CN1CC(C)(C)C[C@H]1C(=O)N[C@@H]1CC[C@@H](Oc2ccc(C(C)(C)C(=O)NS(C)(=O)=O)cc2-c2ccccc2CC(F)(F)F)C1 [Example E6, N-[(1R,3R)-3-{[5-{1-[(methanesulfonyl)amino]-2-methyl-1-oxopropan-2-yl}-2′-(2,2,2-trifluoroethyl)[1,1′-biphenyl]-2-yl]oxy}cyclopentyl]-1,4,4-trimethyl-L-prolinamide]
0.21 | 4.7 | 18.9 |  |  |  | CC(C)S(=O)(=O)NC(=O)C(C)(C)c1ccc(O[C@@H]2CC[C@@H](NC(=O)[C@@]3(F)CNC4(CCC4)C3)C2)c(-c2ccccc2C2CCC2)c1 (single isomer, unassigned) [Example C48]
2.22 | 21.6 | 253 |  |  |  | CCc1c(F)cccc1-c1cc(C(C)(C)C(=O)NS(C)(=O)=O)ccc1O[C@@H]1CC[C@@H](NC(=O)[C@@]2(F)CNC3(CCC3)C2)C1 (single isomer, unassigned) [Example C11]
0.14 | 3.5 | 7.8 |  |  |  | CC1(C)CNC[C@](F)(C(=O)N[C@@H]2CC[C@@H](Oc3ccc(C(C)(C)C(=O)NS(=O)(=O)C4(C)CC4)cc3-c3cccc(F)c3C3CCC3)C2)C1 (single isomer, unassigned) [Example C35]
0.11 |  | 52.4 | 9.6 |  |  | CCc1c(F)cccc1-c1cc(C(C)(C)C(=O)NS(=O)(=O)C(C)C)ccc1O[C@@H]1CC[C@@H](NC(=O)[C@@]2(F)CNCC(C)(C)C2)C1 (single isomer, unassigned) [Example C45]
 |  |  | 3.89 | 6.32 | 0.21 | CC(C(=O)NS(C)(=O)=O)c1ccc(O[C@@H]2CC[C@@H](NC(=O)[C@@H]3CC(C)(C)CN3C)C2)c(-c2cccc(F)c2C2CCC2)c1 (single isomer, unassigned) [Example E9]
0.08 | 2.2 | 5.2 |  |  |  | CCS(=O)(=O)NC(=O)Cc1ccc(O[C@@H]2CC[C@@H](NC(=O)[C@@]3(F)CNC4(CCCC4)C3)C2)c(-c2ccccc2C(C)C)c1 (single isomer, unassigned) [Example C63]

Continued, compound first:

Compound | Ki (KAT2A; [1]) [nM] | IC50 (H3K9AC (HT1080 cells); [2]) [nM] | IC50 (MM.1S cells; Homo sapiens, MM1.S, 240 h) [nM] | IC50 (H3K9AC (HT1080 cells); H3K9AC sandwich ELISA) [nM] | IC50 (MM.1S cells) [nM] | Ki (KAT2A; [3]) [nM]
CC(C)(C(=O)NS(=O)(=O)C1CC1)c1ccc(O[C@@H]2CC[C@@H](NC(=O)[C@]3(F)CNC4(CCC4)C3)C2)c(-c2cccc(F)c2C2CCC2)c1 (single isomer, unassigned) [Example B12] | 0.18 | 1.4 | 14.1 |  |  | 
CCc1c(F)cccc1-c1cc(C(=O)O)ccc1O[C@@H]1CC[C@@H](NC(=O)[C@@]2(F)CNC3(CCCC3)C2)C1 (single isomer, unassigned) [Example A42] | 0.41 |  |  | 8.4 | 37.4 | 
O=C(O)Cc1ccc(O[C@@H]2CC[C@@H](NC(=O)[C@@]3(F)CNC4(CCCC4)C3)C2)c(-c2cccc(F)c2C2CCC2)c1 (single isomer, unassigned) [Example A25] | 0.68 |  | 26 | 4.22 |  | 
CC(C)c1c(F)cccc1-c1cc(C(C)(C)C(=O)O)ccc1O[C@@H]1CC[C@@H](NC(=O)[C@@]2(F)CNC3(CCC3)C2)C1 (single isomer, unassigned) [Example A22] | 0.34 |  |  | 4.33 | 101 | 
O=C(O)c1ccc(O[C@@H]2CC[C@@H](NC(=O)[C@@]3(F)CNCC4(CCC4)C3)C2)c(-c2cccc(F)c2C2CCC2)c1 (single isomer, unassigned) [Example A34] | 0.21 |  | 7.8 | 1.4 |  | 
O=C(O)c1ccc(O[C@@H]2CC[C@@H](NC(=O)[C@@]3(F)CNC4(CCCC4)C3)C2)c(-c2cccc(F)c2C2CCC2)c1 (single isomer, unassigned) [Example A36] | 0.1 |  | 3.5 | 0.7 |  | 
CC(C)S(=O)(=O)NC(=O)C(C)(C)c1ccc(O[C@@H]2CC[C@@H](NC(=O)[C@@]3(F)CNC(C)(C)C3)C2)c(-c2cccc(F)c2C2CCC2)c1 (single isomer, unassigned) [Example B18] | 16.1 |  |  | 121 | 1270 | 
CC(C)(C(=O)NS(=O)(=O)C1CC1)c1ccc(O[C@@H]2CC[C@@H](NC(=O)[C@@]3(F)CNC4(CCCC4)C3)C2)c(-c2cccc(F)c2C2CCC2)c1 (single isomer, unassigned) [Example B26] | 0.06 | 2.2 | 7.4 |  |  | 
CC(C)(C(=O)NS(=O)(=O)C1(C)CC1)c1ccc(O[C@@H]2CC[C@@H](NC(=O)[C@@]3(F)CNC4(CCC4)C3)C2)c(-c2cccc(F)c2C2CCC2)c1 (single isomer, unassigned) [Example B34] | 0.04 | 3.1 | 8.4 |  |  | 
CC(C)c1c(F)cccc1-c1cc(C(C)(C)C(=O)O)ccc1O[C@@H]1CC[C@@H](NC(=O)[C@@]2(F)CNC3(CCC3)C2)C1 (single isomer, unassigned) [Example A21] | > 99.9 |  |  | > 1000 | > 10000 | 
